Assay results from patent US4517179A, “Rapid dissolving, uniform drug compositions and their preparation” (priority 1984, dated 1985).
In brackets after ≈: the same amount, converted by molar mass. Blank lines part the entries; values can stand above or below the molecule they belong to.

What was measured:
[1] = 0.01N hydrochloric acid; cited from earlier work
Water solubility = format: physicochemical; details: for solubility: water
[2] = Particle size distribution by screen analysis; format: physicochemical; details: for particle size d16%: 16 weight percent; for particle size d50%: 50 weight percent; for particle size d84%: 84 weight percent
Protocol: where d is the particle diameter in μm at the indicated percentage by weight and σg is the geometric standard deviation.
The particle size distributions of drugs and excipients were determined by a screen analysis technique. A 5 gm sample of each test material was placed on the top screen of a set of six US standard screens of an Allen Bradley Sonic Sifter. The screens were pulsed for 15 minutes. The following screens were used: 80 mesh (180 μm), 100 mesh (150 μm), 140 mesh (106 μm), 200 mesh (75 μm), 270 mesh (53 μm) and 400 mesh (38 μm). The weights of the fractions retained on the screens were obtained. Particle sizes (d) at specific weight percents (16, 50, and 84) were obtained from a log probability plot of the data as described by Edmundson (Advances in Pharmaceutical Sciences, Bean, H.S. et al. Editors, Academic, London, England p. 95, 1967). These particle sizes are described as d16, d50, and d84.
The slopes of the lines from the plots were calculated to give the geometric standard deviation (σg).

[3] = result from metolazone usage; cited from earlier work
[4] = listed as fine-milled metolazone
[5] = listed as monocrystalline metolazone

SMILES: Cc1ccccc1N1C(=O)c2cc(S(N)(=O)=O)c(Cl)cc2NC1C (centres unmarked) [amorphous and metastable metolazone]
dissolution rate relative to the stable modification (mp. 267°-270° C.) [1]: about 8 times faster

water solubility (Water solubility; 25° C.): approximately 60.3 mcg/ml
solubility (Water solubility; 25° C.): ~60 µg/mL (≈ 164 µM)
solubility (Water solubility; 36° C.): ~100 µg/mL (≈ 273 µM)
particle size d16% [2, 4]: 155 μm
particle size d16% ([2]; listed as milled metolazone): 94 μm
particle size d16% [2, 5]: 460 μm
particle size d50% [2, 4]: 86 μm
particle size d50% ([2]; listed as milled metolazone): 56 μm
particle size d50% [2, 5]: 190 μm
particle size d84% [2, 4]: 48 μm
particle size d84% ([2]; listed as milled metolazone): 34 μm
particle size d84% [2, 5]: 83 μm
SMILES: Cc1ccccc1N1C(=O)c2cc(S(N)(=O)=O)c(Cl)cc2NC1C (centres unmarked) [metolazone, 2-methyl-3-o-tolyl-6-sulfamyl-7-chloro-1,2,3,4-tetrahydro-4-quinazolinone]
side effects [3]: hypokalemia

particle size d16% [2]: 76 μm
particle size d50% [2]: 41 μm
particle size d84% [2]: 17 μm
SMILES: Nc1nc(N)c2nc(-c3ccccc3)c(N)nc2n1 [triamterene]
